These results are taken from the SangsterLogP compilation.

A short description of data set [1]: method code SF-HPLC, from PMID: 3799213. Conditions: pH 4.0.
The nature of data set [2]: method code SF-AS, from DOI: 10.1016/s0021-9673(01)91572-9, PMID: 2376602. Conditions: pH 7.0.
Data set [3] is described as follows: method code SF, from DOI: 10.1016/0048-3575(88)90017-x.
Data set [4] is described as follows: method code SF-RC, from Audran, M.; Chanal, J.; Berge, G.; Marignan, R. (1983). Binding-structure correlation of bovine serum albumin in a series of cresotinamides. International Journal of Pharmaceutics, 15(3)273-284. Conditions: pH 1.0.
The nature of data set [5]: method code SF, from DOI: 10.1002/1522-2675(20001004)83:10<2836::aid-hlca2836>3.0.co;2-g.
Data set [6] is described as follows: method code SF, from DOI: 10.1016/j.bmcl.2006.04.097, PMID: 16714112.
Data set [7] is described as follows: method code SF-HPLC, from DOI: 10.1016/0378-5173(87)90096-2. Conditions: pH 8.0.
Data set [8] can be described thus: method code SF-AS, from DOI: 10.1016/0378-5173(90)90042-3.
A short description of data set [9]: method code SF-AS, from DOI: 10.1002/jhet.5570150704.
Data set [10] in a line: from Dutta, H.; Mehta, N.; SenGupta, M.; Pal, D.; Sengupta, C.; De, A. (1988). Dioxanide furoate: studies on its interaction with blood phospholipid in relation to partition coefficients of related drugs. ….
The nature of data set [11]: method code SF, from DOI: 10.1080/09553008714551831, PMID: 3497891. Conditions: pH 7.4.
A short description of data set [12]: method code SF-C, from DOI: 10.1038/194178b0.
Data set [13] in a line: method code SF-AS, from DOI: 10.1021/jm00075a005, PMID: 8246220. The conditions noted are these: pH 7.4.
Data set [14] in a line: method code SF, from DOI: 10.1021/bk-1995-0606.ch005.
Data set [15] in a line: method code SF-AS, from Korenman, Y.; Danilov, N. (1990). Extraction of alkyl salicylates from aqueous media. Journal of Applied Chemistry of the USSR, 63(1)125-129.
Assay in data set [16]: not given
This is another data set of the same source.

The nature of data set [17]: method code SF-AS, from DOI: 10.1016/j.bioorg.2006.09.003, PMID: 17078995. Conditions: pH 7.4.
A short description of data set [18]: method code SF-AS, from DOI: 10.1016/0005-2728(86)90252-5, PMID: 3015209. The conditions noted are these: pH 7.2.
A short description of data set [19]: method code SF, from DOI: 10.1016/s0378-5173(98)00231-2.
A short description of data set [20]: method code SF-GLC, from DOI: 10.1016/0378-4274(86)90173-6, PMID: 3952768.
Data set [21] is described as follows: method code SF-HPLC, from DOI: 10.1023/a:1015862319927, PMID: 2062808. Conditions: pH 7.4.
Assay in data set [22]: not given
This is another data set of the same source.

Data set [23] is described as follows: method code SF, from DOI: 10.1021/bk-1995-0606.ch004.
Data set [24] is described as follows: method code SF-C, from DOI: 10.1021/ja00901a033.
The nature of data set [25]: method code SF-AS, from DOI: 10.1021/jm00297a026, PMID: 5441130.
Data set [26] in a line: method code SF-AS, from DOI: 10.1016/0006-2952(80)90068-4, PMID: 6775639.

Structures are written as SMILES.

A word on the logD: it is the decadic logarithm of the distribution of all forms, ionised or not, between an organic phase and buffer at a given pH. Low values mean lower lipophilicity, high ones higher lipophilicity.

Take `CCOC(=O)OCn1c(=O)[nH]cc(F)c1=O`: the logD in [1] was determined as 0.15.
In [2], `Nc1nc(=O)n([C@H]2CC[C@@H](CO)O2)cc1F` returned a log distribution coefficient (logD) of -1.05.
In data set [3], `CC(=O)OCN1C(=O)C(C)=C(C)C1=O` showed a logP of 0.65.
As for `CCCCNC(=O)c1cc(Br)cc(C)c1O`, the logD in data set [4] was found to be 4.21.
As for `CNCCc1ccccc1`, the logD in data set [5] (pH 12.5) is 1.68.
With `Ic1ccccc1C1=NCCO1`, the logP in data set [6] came out at 2.3.
In the case of `NC(=O)CCCc1cccnc1`, the logD in data set [7] is 0.07.
`CNC(=O)c1cc(Br)cc(C)c1O` showed a logD in data set [4] of 3.51.
`CCCOC(=O)c1cc(=O)[nH]c(=O)[nH]1` had a logP in [8] of 1.1.
In the case of `CC(C)OC(=O)c1cc(=O)[nH]c(=O)[nH]1`, the logP in data set [8] is 0.81.
In turn, `Cc1nonc1-c1ccccn1` yielded a logP in data set [9] of 2.09.
Compound `Cc1ncn(-c2ccc(Cl)cc2)c(=O)c1C(=O)O` came in with a logP of 2.26.
Compound `CC(=O)Oc1ccc(N(C)C(=O)C(Cl)Cl)cc1` gave a logP in [10] of 1.56.
In turn, `COC(=O)C(=Cc1cnc(S(C)(=O)=O)n1C)C(=O)OC` yielded a logD in data set [11] of 0.49.
In [2], `Nc1ccn([C@@H]2C=C(CO)[C@@H](O)[C@H]2O)c(=O)n1` displayed a logD of -2.3.
The compound `CCc1cccc(OCC(=O)O)c1` yielded a logP in data set [12] of 2.3.
Turning to `Cc1ccc(CN)cc1`, the logD in data set [5] (pH 12.5) came out at 1.58.
`CON1C(=O)CC2(CCCC2)C1=O`: in data set [13], the logD was 1.15.
`NC(=O)CCCCc1ccccn1` showed a logD in data set [7] of 0.4.
Turning to `COC(=O)c1ccccc1CS(=O)(=O)Nc1nc(OC)cc(OC)n1`, in data set [14] (pH 5.0), the logD was 2.4.
On to `COC(=O)c1ccccc1O`, for which, in [15], the logP turned out to be 2.08.
`Nc1ccccc1-c1ccccc1` had a logD in data set [5] (pH 5.5) of 2.64.
On to `COP(=S)(OC)Oc1ccc([N+](=O)[O-])cc1`, for which the logP in data set [14] came to 2.86.
Turning to `CNc1ccc(C)cc1`, the logP in [16] came to 2.15.
Turning to `COC(=O)Nc1ccccc1`, the logP in data set [14] was found to be 1.76.
`O=C(O)COc1ccc(Cl)cc1` yielded a logP in [12] of 2.23.
On to `CCCCOC(=O)c1ccccc1O`, for which the logP in data set [15] stood at 4.63.
On to `OCCc1ccc(O)c(O)c1`, for which the logD in [17] was found to be 0.09.
In turn, `O=C(O)C(=O)Nc1ccc(Cl)cc1` yielded a logP of 2.08.
`N#CC(C#N)=NNc1c(Cl)cccc1Cl` yielded a logD in data set [18] of 2.01.
As for `OCCCCCc1ccccc1`, the logP in data set [19] stood at 2.89.
In data set [20], `CCCCCCCCCC(C)=O` came in with a logP of 4.09.
Consider `Cc1ccc(C)c(NN=C(C#N)C#N)c1`, for which the logD in data set [18] came out at 2.6.
The compound `CCC(=O)OCC1OC(n2cc(I)c(=O)[nH]c2=O)CC1O` (stereo not given) yielded a logD in [21] of 0.68.
Take `O=C1CC2(CCCC2)C(=O)N1OCc1ccccc1`: the logD in data set [13] was determined as 2.3.
`CCCNCc1ccc(C)cc1`: in data set [22], the logP came out at 2.96.
Compound `O=C(OCn1c(=O)[nH]cc(F)c1=O)Oc1ccccc1` showed a log distribution coefficient (logD) in data set [1] of 1.11.
Regarding `CC(=O)Oc1ccc(NC(=O)C(Cl)Cl)cc1`, the logP in data set [10] was found to be 1.9.
In data set [18], `Cc1cc([N+](=O)[O-])ccc1NN=C(C#N)C#N` showed a logD of 1.85.
Compound `O=C1CC2(CCCC2)C(=O)N1OCc1ccc(Cl)cc1` registered a logD in [13] of 2.53.
The compound `CCCCOC(=O)c1cc(=O)[nH]c(=O)[nH]1` registered a logP in [8] of 1.33.
On to `CN(C(=O)C(Cl)Cl)c1ccc(O)cc1`, for which the logP in data set [10] worked out at 1.78.
In data set [20], `CC(=O)CCC(C)C` showed a logP of 1.88.
In data set [23], `COP(=O)(OC)Oc1c(Cl)cc(C)cc1Cl` displayed a logP of 2.66.
For the compound `CCOP(=O)(Oc1ccc(C#N)cc1)c1ccccc1` (stereo not given), the logP in [23] stood at 2.44.
As for `N#Cc1ccc(OCC(=O)O)cc1`, the logP in data set [24] amounted to 1.11.
In [17], `CCC(=O)OCCc1ccc(O)c(OC)c1` registered a logD of 2.33.
With `O=c1[nH]c(=O)n([C@H]2C[C@H](O)[C@@H](CO)O2)cc1I`, the logD in [21] was -0.95.
For the compound `NC(=O)CCCc1ccncc1`, the logD in data set [7] was 0.06.
In data set [24], `Cc1ccc(OCC(=O)O)cc1` registered a logP of 1.95.
Turning to `OCCCc1ccccc1`, the logP in data set [19] was 1.83.
Turning to `CCOC(=O)OCn1cc(F)c(=O)[nH]c1=O`, the logD in data set [1] was -0.04.
In turn, `Cc1cccc(C)c1C1=NCCO1` yielded a logP in [6] of 2.21.
As for `O=C(O)CONC(=O)c1c(Cl)cccc1Cl`, the logP came out at 0.83.
On to `Cc1noc(-c2ccccn2)n1`, for which the logP in data set [9] worked out at 0.89.
In the case of `CNCc1ccc(C)cc1`, the logP in data set [22] came to 1.96.
The compound `O=C(O)COc1ccc(I)cc1` returned a logP in data set [24] of 2.69.
In the case of `CC(=O)OCN1Cc2ccccc2C1=O`, in [3], the logP amounted to 0.99.
On to `Cc1cc(Br)cc(C(=O)NC2CC2)c1O`, for which, in data set [4], the logD was 3.8.
The compound `CC(=O)OCN1C(=O)c2ccccc2C1=O` displayed a logP in [3] of 1.15.
With `CCCOC(=O)c1ccccc1O`, the logP in data set [15] stood at 3.8.
With `CCCCCn1cnc2c(N)ncnc21`, in [25], the logP stood at 1.79.
In the case of `CCCC(C)CCC(C)=O` (stereo not given), the logP in data set [20] amounted to 2.92.
Compound `COC(=O)C(=Cc1cnc(S(C)=O)n1C)C(=O)OC` (stereo not given) came in with a logD in [11] of -0.43.
For `CC1=C(C)C(=O)C(C)=C(C)C1=O`, in [26], the logP worked out at 2.12.
In [17], `COc1cc(CCOC(C)=O)ccc1O` showed a logD of 1.5.
Turning to `O=C(OC[C@H]1O[C@@H](n2cc(I)c(=O)[nH]c2=O)C[C@@H]1O)c1ccccc1`, the logD in data set [21] stood at 1.4.
The compound `COP(=O)(OC)Oc1ccc(C#N)cc1` gave a logP in data set [23] of 0.84.
In the case of `OCCCCCCc1ccccc1`, the logP in [19] came out at 3.29.
Regarding `CCCCC(CO)n1cnc2c(N)ncnc21` (stereo not given), in data set [25], the logP was found to be 1.16.
Turning to `FC(F)(F)c1ccccc1C1=NCCO1`, the logP in [6] stood at 2.15.
In [26], `CC1=CC(=O)C(C)=C(C)C1=O` returned a logP of 1.47.
With `Cc1nnc(-c2ccccn2)o1`, the logP in [9] is 0.46.
In turn, `O=C1C(c2[nH]c3ccc(S(=O)(=O)O)cc3c2O)=Nc2ccc(S(=O)(=O)O)cc21` came in with a logP in [26] of -2.
For the compound `CCNc1ccccc1`, the logP in [16] is 2.16.
The compound `Nc1ncnc2c1ncn2C1C=C(CO)C(O)C1O` (stereo not given) returned a logD in data set [2] of -1.3.
`CCCCCNCc1ccc(C)cc1`: in data set [22], the logP was 4.26.
As for `CC(OCC=CCO)N1C=CNC1[N+](=O)[O-]` (stereo not given), in [11], the logD is -0.28.
Turning to `O=C(O)COc1cccc(Br)c1`, the logP in [12] is 2.4.
Compound `c1ccc2c(c1)CCCN2` yielded a logP in data set [16] of 2.29.
